Measurements published in ChEMBL document CHEMBL3286294, “Buthionine sulfoximine diverts the melanogenesis pathway toward the production of more soluble and degradable pigments” (Bioorg Med Chem Lett, 2014).
Calls of active or inactive are those of the source.

Key:
[1] = molecular target: T1, Tyrosinase (Agaricus bisporus) (UniProt O42713); assay: Induction of eumelanogenesis assessed as mushroom tyrosinase-mediated simulation of eumelanogenesis by measuring oxidation of L-DOPA at 4.5 to 184.4 mM after 48 hrs by Vis-spectrophotometer analysis in absence of glutathione
T1 sequence (whole entry): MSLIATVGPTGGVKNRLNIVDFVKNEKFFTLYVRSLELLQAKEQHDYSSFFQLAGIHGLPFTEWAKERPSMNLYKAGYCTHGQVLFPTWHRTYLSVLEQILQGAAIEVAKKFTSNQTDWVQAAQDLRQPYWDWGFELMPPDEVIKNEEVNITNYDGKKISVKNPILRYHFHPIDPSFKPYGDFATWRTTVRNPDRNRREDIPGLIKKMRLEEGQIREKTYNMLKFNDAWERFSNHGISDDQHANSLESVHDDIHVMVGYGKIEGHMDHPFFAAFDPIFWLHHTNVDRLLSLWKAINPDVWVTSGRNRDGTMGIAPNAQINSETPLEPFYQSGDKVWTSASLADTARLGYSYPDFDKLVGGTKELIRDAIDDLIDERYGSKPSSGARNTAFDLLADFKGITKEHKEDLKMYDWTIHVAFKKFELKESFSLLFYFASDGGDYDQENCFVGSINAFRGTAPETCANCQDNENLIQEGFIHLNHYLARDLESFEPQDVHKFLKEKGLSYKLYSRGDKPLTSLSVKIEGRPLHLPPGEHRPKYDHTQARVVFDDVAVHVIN

[2] = molecular target: T1, Tyrosinase (Agaricus bisporus); assay: Induction of eumelanogenesis assessed as mushroom tyrosinase-mediated simulation of eumelanogenesis by measuring oxidation of L-DOPA at 4.5 to 184.4 mM after 48 hrs by Vis-spectrophotometer analysis in absence of glutathione and presence of H2O2
[3] = molecular target: T1, Tyrosinase (Agaricus bisporus); assay: Induction of pheomelanogenesis assessed as mushroom tyrosinase-mediated simulation of pheomelanogenesis by measuring oxidation of L-DOPA at 4.5 to 184.4 mM after 48 hrs by Vis-spectrophotometer analysis in presence of 0.65 to 3.2 mM of glutathione
[4] = molecular target: T1, Tyrosinase (Agaricus bisporus); assay: Induction of pheomelanogenesis assessed as mushroom tyrosinase-mediated simulation of pheomelanogenesis by measuring oxidation of L-DOPA at 4.5 to 184.4 mM after 48 hrs by Vis-spectrophotometer analysis in presence of 0.65 to 3.2 mM of glutathione and H2O2
[5] = molecular target: T1, Tyrosinase (Agaricus bisporus); assay: Inhibition of mushroom tyrosinase-mediated simulation of pheomelanogenesis assessed as oxidation of L-DOPA at 4.5 to 184.4 mM after 48 hrs by Vis-spectrophotometer analysis in presence of 16.3 to 81.3 mM of glutathione

CCCCS(=N)(=O)CCC(N)C(=O)O (racemic)
active: Activity [1] | Activity [2] | Activity [3] | Activity [4] | inhibition [5]
